The stoichiometry N is the number of molecules, sites or subunits per partner or assembly.

In assay [1] the target is T1, MtCPA (Medicago truncatula, UniProt G7ITU5, C158S).
T1 construct: gene MTR_2g086600; recombinant in E. coli BL21 Gold (pMCSG68); His6 tag cut by TEV, N-terminal Ser-Asn-Ala linker remains; homooctamer, active site fenced by dimer mate
T1 sequence (G7ITU5 1-301 C158S): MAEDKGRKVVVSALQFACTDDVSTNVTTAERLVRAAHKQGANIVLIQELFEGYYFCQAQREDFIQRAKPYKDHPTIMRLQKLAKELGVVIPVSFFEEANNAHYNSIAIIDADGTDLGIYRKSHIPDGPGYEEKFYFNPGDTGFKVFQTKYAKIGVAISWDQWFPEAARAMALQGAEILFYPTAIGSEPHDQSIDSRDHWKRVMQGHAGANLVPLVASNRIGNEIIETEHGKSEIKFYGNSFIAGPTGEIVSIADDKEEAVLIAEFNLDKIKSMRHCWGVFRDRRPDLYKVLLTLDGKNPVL
The experiment in a line: X-ray crystallography of complex, […] Å. The format is binding. The conditions noted are these: cocrystallized with 10 mM putrescine, pH 7.0; active site, non-covalent.

Assay [2] concerns the target T2, MtCPA (Medicago truncatula, UniProt G7ITU5).
T2 construct: gene MTR_2g086600; recombinant in E. coli BL21 Gold (pMCSG68); His6 tag cut by TEV, N-terminal Ser-Asn-Ala linker remains; homooctamer, active site fenced by dimer mate
Briefly: X-ray crystallography of complex, […] Å. The conditions noted are these: covalent; bound to Cys158 in active site; formed in crystal from 10 mM putrescine (probably with CO2), pH 7.0. The format is binding.

The target in assay [3] is MtCPA-C158S mutant (Medicago truncatula). Briefly: crystal structure; hanging drop, 20% PEG3350, 8% Tacsimate pH 7.0 (with or without 10% glycerol); space group P2(1)2(1)2, two octamers in the asymmetric unit; data at 100 K.
The target in assay [4] is T2, MtCPA. Briefly: X-ray crystallography of complex, […] Å. The format is binding. The conditions noted are these: cocrystallized with 17 mM cadaverine, pH 7.0; active site, non-covalent.
Assay [5] deals with N-carbamoylputrescine amidohydrolase from Medicago truncatula (MtCPA), wild type (Medicago truncatula). The experiment in a line: crystal structure; hanging drop, 20% PEG3350, 8% Tacsimate pH 7.0 (with or without 10% glycerol); space group P2(1)2(1)2, two octamers in the asymmetric unit; data at 100 K.

T2 sequence (G7ITU5 entry or part of it): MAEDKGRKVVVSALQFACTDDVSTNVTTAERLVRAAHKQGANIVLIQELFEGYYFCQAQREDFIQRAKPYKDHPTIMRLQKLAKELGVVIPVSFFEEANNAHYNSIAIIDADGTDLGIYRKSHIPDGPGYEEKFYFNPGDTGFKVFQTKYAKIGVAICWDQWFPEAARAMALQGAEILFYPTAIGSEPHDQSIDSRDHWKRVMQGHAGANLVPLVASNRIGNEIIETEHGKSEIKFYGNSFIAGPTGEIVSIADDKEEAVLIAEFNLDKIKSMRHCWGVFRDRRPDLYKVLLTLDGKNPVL

Take `NCCCCN` [PUT, 1,4-diaminobutane]: the “X-ray crystallography of complex, 2.29 Å” value at MtCPA [1] is “MtCPA-C158S mutant cocrystallized with PUT clearly shows the ligand without any modifications”.
Consider `NCCCCNC(O)O` [DHMP, N-(dihydroxymethyl)putrescine], for which the “X-ray crystallography of complex, 1.97 Å” value at MtCPA [2] is listed as “DHMP was covalently bound to the catalytic Cys158”.
Consider MtCPA-C158S mutant (enzyme), for which the stoichiometry N in assay [3] is 8.
For the compound `NCCCCCN` [CAD, 1,5-diaminopentane], at MtCPA [4], the “X-ray crystallography of complex, 2.19 Å” value is recorded as “we do indeed observe CAD in the active site”.
Turning to “N-carbamoylputrescine amidohydrolase from Medicago truncatula (MtCPA), wild type (enzyme)”, the stoichiometry N in assay [5] is 8.

Values taken from publication PMC4812014, “Structural Investigations of N-carbamoylputrescine Amidohydrolase from Medicago truncatula: Insights into the Ultimate Step of Putrescine Biosynthesis in Plants” (Frontiers in Plant Science, 2016).
